This is an account of results in publication PMC11012289, “The Discovery of New Inhibitors of Insulin-Regulated Aminopeptidase by a High-Throughput Screening of 400,000 Drug-like Compounds” (International Journal of Molecular Sciences, 2024).

Where only a bound is given, the exact number is not on record here.

Test [1] concerns the target T1, IRAP (Homo sapiens, UniProt Q9UIQ6).
T1 construct: The screen was performed with the soluble truncated IRAP enzyme; made in house
Nature of the test: Primary fluorescence IRAP assay (L-Leucine-7-amido-4-methylcoumarin cleavage). The class given is biochemical. To be noted: for IC50: 37.5 µM L-Leucine-7-amido-4-methylcoumarin, 60 min RT, dose-response 20 µM-27.4 nM, read-out: Fluorescence IC50; for LipE: calculated from (pIC50Fluorescence − LogD). The source says: The primary biochemical assay was developed to measure the enzymatic activity of IRAP.
To ensure biochemically sound, optimal, robust, and affordable assay conditions for large-scale screening, several factors need to be considered. […] For both primary fluorescence and orthogonal absorbance assays, non-binding 1536-well assay plates were used, and 0.05% BSA was included in the assay buffer to minimize the issues associated with protein sticking to plastics. The substrate Km values were determined in two separate experiments using two different batches of IRAP protein. For this, the IRAP progress curve was monitored every 5 min for 2 h using an Envision multimode plate reader (PerkinElmer, Waltham, MA, USA).
First, 10 nL of test compounds (4 mM) or 100% DMSO was dispensed into the 1536-well assay plates using an Echo acoustic liquid handler (Beckman Coulter, Brea, CA, USA). Then, 2 μL of protein working solution (5 × 10^−4 mg/mL) was dispensed to the negative control (min effect) and compound wells (final well concentration 2.5 × 10^−4 mg/mL) using a Certus Flex liquid dispenser (Fritz Gyger AG, Thun, Switzerland) and 2 μL assay buffer to the positive control wells (max effect) using a FLEXdrop (PerkinElmer, Waltham, MA, USA).
Figure S9. Reference compounds in Fluorescence IRAP assay with different end volumes in 1536-well format.
mg/ml) and 2 or 4 µL L -Leucine-7-amido-4-methylcoumarin (f.a.c.
Plates were measured on the Envision every 10 minutes for 140 minutes (data
shown up to 2 hours). %Effect was calculated using no protein as MAX effect (assay buffer was added instead of IRAP).

The target in test [2] is T1, IRAP. The test is described as follows: Deselection fluorescence IRAP assay with 10 µM zinc. It counts as biochemical. The note with it: 10 µM ZnSO4 in assay buffer; read-out: Fluorescence + Zn pIC50 (converted). Here is the method: To prepare the assay buffer (50 mM Tris-HCl pH 7.4, 150 mM NaCl, 0.1 mM PMSF, 0.05% BSA) of the primary and orthogonal assays, 1 M Tris-HCl was prepared by dissolving 60.57 g Trizma-base (Mw 121.14 g/mol) (Sigma 93362-250G) in 500 mL MQ water, and the pH was adjusted to 7.4 using 4 M HCl. The solution was filtered with a 0.45 μm filter and stored at room temperature (RT). Then, 2 M NaCl stock was prepared by dissolving 29.22 g NaCl (Mw 58.44 g/mol) (Sigma S7653-250G) in 250 mL MQ water. The solution was filtered with a 0.45 μm filter and stored at RT. Next, 100 mM Phenylmethanesulfonylfluoride (PMSF) stock was prepared by dissolving 1 g PMSF (Mw 174.19 g/mol) (Sigma 78830-1G) in 57.4 mL isopropanol (Sigma I9516-500ML) and stored at 4 °C. A 10% Bovine Serum Albumin (BSA) stock solution was prepared by dissolving 2 g BSA (Mw 66.5 kDa) (Sigma A7030-50G), which was dissolved in 20 mL MQ water. The solution was filtered with a 0.45 μm filter, aliquoted, and stored at −20 °C. For the deselection assay buffer (50 mM Tris-HCl pH 7.4, 150 mM NaCl, 0.1 mM PMSF, 0.05% BSA, 10 μM ZnSO4), 1 mM ZnSO4 solution was prepared by dissolving 28.8 mg ZnSO4 (Mw 287.56 g/mol) (Sigma Z0251-100G) in 100 mL MQ water. The solution was filtered with a 0.45 μm filter and stored at RT. For the TSA assay buffer (50 mM Tris HCL, 150 mM NaCl, pH 7.4), stocks of 1 M Tris HCL and 2 M NaCl were prepared as described above.

For test [3], the target named is T1, IRAP. The test is described as follows: Thermal shift (TSA) IRAP assay. The class given is binding. To be noted: screening hits at 30 µM, 1% DMSO. The source says: The Thermal shift assay (TSA) is a biophysical technique measuring protein thermal stability. The assay relies on a fluorescent dye that is quenched in an aqueous environment but fluoresces when de-solvated in non-polar environments, such as the hydrophobic pockets of proteins. The target protein is mixed with the dye and heated gradually until it becomes completely denatured; as it unfolds or melts, the dye binds to newly exposed hydrophobic regions of the protein, resulting in a significant increase in fluorescence emission detected by a PCR system. The melting temperature (Tm) is calculated from the protein melt curve, and changes in Tm (known as ΔTm) are correlated with changes in protein stability and ligand binding. […] For the TSA assay, vehicle (DMSO) or compound was dispensed into MicroAmp Endura optical qPCR plates at the desired volume using an Echo acoustic liquid handler. […] The plates were then centrifuged for 10 s at 1000 rpm and sealed with Clear PCR-compatible plate seals.

Details of test [4]: method as in ELF screening history. The note with it: ref ELF screening history, cited from earlier work; for Enzyme Active: number of ELF enzyme screens in which the compound was active; for Targets active: number of ELF screens in which the compound was active; for Enzyme Active %: share of ELF enzyme targets screened; for Targets Active %: share of all ELF targets screened.
Test [5] addresses T1, IRAP. Nature of the test: Orthogonal absorbance IRAP assay (L-Leucine para-nitroanilide cleavage). To be noted: 1 mM L-Leucine p-Nitroanilide, 120 min RT; read-out: Absorbance pIC50 (converted). The class given is biochemical. The source says: The primary biochemical assay was developed to measure the enzymatic activity of IRAP. […] To establish an orthogonal assay, an alternative L-Leucine para-nitroanilide substrate was used, which IRAP turns over to L-Leucine and para-nitroaniline and is measurable by absorbance at 405 nm (Supplementary Figure S2B).
To ensure biochemically sound, optimal, robust, and affordable assay conditions for large-scale screening, several factors need to be considered. These include the final concentration of substrates, based on the determined substrate Km value; the assay kinetics and reaction linearity; achieving a minimal, rate limiting protein concentration; identifying optimal buffer additives and concentrations; the choice of assay plate type; the final assay volume per well; the stability of reagents; the magnitude and variance of the signal; and the potency and rank order of reference compounds. For both primary fluorescence and orthogonal absorbance assays, non-binding 1536-well assay plates were used, and 0.05% BSA was included in the assay buffer to minimize the issues associated with protein sticking to plastics. The substrate Km values were determined in two separate experiments using two different batches of IRAP protein. For this, the IRAP progress curve was monitored every 5 min for 2 h using an Envision multimode plate reader (PerkinElmer, Waltham, MA, USA). […] To evaluate if using substrate concentrations close to the determined Km values results in sufficient dynamic range within the linear range of the enzymatic reaction, Z′ and S/B were calculated for multiple time points up to 2.5 h in the presence and absence of reference compounds in both assays. The primary fluorescence assay reached an optimal Z′-value after 1 h when using 37.5 μM substrate (Supplementary Figure S5). For the absorbance, 2 h was required for the enzyme reaction time; however, using ~0.4 mM substrate was associated with increased assay variation and a poor Z′ (Supplementary Figure S6).
The orthogonal assay was performed in a black non-binding 1536-well plate (Corning 3728) and sealed with universal lids (Corning 3098). First, 20 nL of test compounds (4 mM) or 100% DMSO was dispensed into the 1536-well assay plates using an Echo acoustic liquid handler (Beckman Coulter). Then, 4 μL of protein working solution (5 × 10^−4 mg/mL) was dispensed to the negative control (min effect) and compound wells (final well concentration 2.5 × 10^−4 mg/mL) using the Certus Flex liquid dispenser (Fritz Gyger AG) and 4 μL assay buffer to the positive control wells (max effect) using the FLEXdrop (PerkinElmer). Next, 4 μL of 2 mM substrate working solution was dispensed into all wells using the FLEXdrop (final well concentration 1 mM). The assay plates were then centrifuged at 187.5× g for 30 s, incubated in the dark at RT for 120 min, and finally read on an Envision plate reader (PerkinElmer) (absorbance at 405 nm, 10 flashes per second). During the dose–response curve analysis in the orthogonal assay, 80 nL of compound (range 2.00 × 10^−3 M–2.74 × 10^−6 M) or 100% DMSO was dispensed into the assay plates using an Echo acoustic liquid handler (Beckman Coulter) with final well concentration range of 20 μM–27.4 nM compound and 1% DMSO.

T1 sequence (Q9UIQ6 155-1025 limits assumed): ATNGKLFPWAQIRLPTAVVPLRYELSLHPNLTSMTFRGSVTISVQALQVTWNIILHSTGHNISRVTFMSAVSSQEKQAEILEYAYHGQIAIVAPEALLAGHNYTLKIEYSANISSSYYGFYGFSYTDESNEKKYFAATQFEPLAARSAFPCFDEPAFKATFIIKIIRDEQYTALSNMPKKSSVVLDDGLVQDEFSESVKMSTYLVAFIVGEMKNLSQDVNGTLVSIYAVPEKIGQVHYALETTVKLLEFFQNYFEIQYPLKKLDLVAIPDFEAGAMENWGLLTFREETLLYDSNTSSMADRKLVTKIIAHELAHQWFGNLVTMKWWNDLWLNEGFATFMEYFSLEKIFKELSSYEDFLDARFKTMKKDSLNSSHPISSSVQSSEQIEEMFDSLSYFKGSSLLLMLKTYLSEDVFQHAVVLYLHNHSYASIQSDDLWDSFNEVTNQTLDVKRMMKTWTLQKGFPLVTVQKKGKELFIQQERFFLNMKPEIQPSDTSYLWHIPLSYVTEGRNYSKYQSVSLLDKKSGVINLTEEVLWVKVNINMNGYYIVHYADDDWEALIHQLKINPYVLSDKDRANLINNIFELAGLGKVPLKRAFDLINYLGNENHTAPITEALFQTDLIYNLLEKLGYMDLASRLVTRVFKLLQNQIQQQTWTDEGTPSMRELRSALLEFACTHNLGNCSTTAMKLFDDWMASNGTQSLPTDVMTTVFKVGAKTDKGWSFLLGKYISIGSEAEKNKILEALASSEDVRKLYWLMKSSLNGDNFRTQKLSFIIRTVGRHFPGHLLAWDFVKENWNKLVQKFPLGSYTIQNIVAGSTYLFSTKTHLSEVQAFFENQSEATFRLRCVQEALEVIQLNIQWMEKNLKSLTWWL

A word on the ΔTm: it is the change in melting temperature against a reference sample. Turning to `COc1ccc(S(=O)(=O)CCC(CCCc2ccccc2)C(=O)NO)cc1` (stereo not drawn) [QHL4], at IRAP [1], the IC50 was 0.71 µM and the LipE is 2.51. Also, at IRAP [2], the IC50 is 0.676 µM. The ΔTm at 30 µM at IRAP [3] was found to be 4 °C. Moreover, in test [4], the “Enzyme Active” value is reported as 3, the Targets active was 5, the “Enzyme Active %” value is given as 3.2% and the “Targets Active %” value is recorded as 3.4%. Moreover, the IC50 on IRAP [5] was 2 µM.

For the molecule `O=C(NO)C1(CS(=O)(=O)N2CCC(c3ccc(F)cc3Cl)C2)CCC1` (stereo not drawn) [QHL5], on IRAP [1], the IC50 is 1.2 µM and the LipE is 3.79. Also, the IC50 on IRAP [2] is 1.12 µM. Besides, at IRAP [3], the ΔTm at 30 µM amounted to 4.29 °C. Also, in test [4], the “Enzyme Active” value is reported as 3, the Targets active is 4, the “Enzyme Active %” value is recorded as 3.3% and the “Targets Active %” value is listed as 2.7%. Further, the IC50 at IRAP [5] was 1.95 µM.

`CC(C)C(CS(=O)(=O)N1CCC(c2ccc(F)cc2Cl)C1)C(=O)NO` (stereo not drawn) [QHL6]: on IRAP [1], the IC50 turned out to be 1.26 µM and the LipE is listed as 3.57. For the same molecule, the IC50 at IRAP [2] is 1.23 µM. In addition, at IRAP [3], the thermal shift (ΔTm) at 30 µM came out at 3.55 °C. Besides, in test [4], the “Enzyme Active” value was 3, the Targets active is recorded as 5, the “Enzyme Active %” value is on record as 3.2% and the “Targets Active %” value is reported as 3.4%. The IC50 at IRAP [5] is 5.75 µM.

Take `Fc1ccc(F)c(Cn2ccc3ncc(N4CCNCC4)cc32)c1Cl` [QHL7]: on IRAP [1], the IC50 amounted to 1.29 µM and the LipE was 2.10. Also, the IC50 on IRAP [2] is 1.38 µM. At IRAP [3], the ΔTm at 30 µM amounted to 0.3 °C. In test [4], the “Enzyme Active” value is on record as 8, the Targets active is 9, the “Enzyme Active %” value was 8.6% and the “Targets Active %” value is listed as 6.0%. On IRAP [5], the IC50 was more than 20 µM.

Turning to `O=C(NO)C(CS(=O)(=O)N1CCC(c2ccc(F)cc2Cl)CC1)C1CCOCC1` (stereo not drawn) [QHL8], on IRAP [1], the IC50 turned out to be 1.32 µM and the LipE is reported as 3.94. In addition, at IRAP [2], the IC50 is 1.29 µM. On IRAP [3], the ΔTm at 30 µM came out at 4.61 °C. Besides, in test [4], the “Enzyme Active” value is 4, the Targets active is 6, the “Enzyme Active %” value was 4.3% and the “Targets Active %” value is 4.0%. In addition, the IC50 on IRAP [5] is 3.55 µM.

Consider `COc1cc(C(=O)N2CCc3n[nH]c(-c4cccs4)c3CC2)on1` [QHL9], for which, on IRAP [1], the IC50 is 1.51 µM and the LipE was 2.98. For the same molecule, the IC50 on IRAP [2] was 1.58 µM. Also, on IRAP [3], the ΔTm at 30 µM was determined as 0.15 °C. In test [4], the “Enzyme Active” value is on record as 2, the Targets active is 4, the “Enzyme Active %” value is 4.9% and the “Targets Active %” value is listed as 5.3%. Moreover, the IC50 at IRAP [5] was more than 20 µM.

With `NCC[C@H]1CCCCN1C(=O)Cn1nc(-c2ccc(Cl)cc2)c2c1CCCC2` [QHL11], at IRAP [1], the IC50 is 1.66 µM and the LipE is on record as 2.57. Moreover, the IC50 at IRAP [2] was 1.7 µM. Further, at IRAP [3], the ΔTm at 30 µM was determined as 1.92 °C. For the same molecule, in test [4], the “Enzyme Active” value was 4, the Targets active is 5, the “Enzyme Active %” value is listed as 4.2% and the “Targets Active %” value is 3.4%. Also, the IC50 at IRAP [5] was 3.89 µM.

With `Cc1cccc(Cl)c1CNc1ncnc2ncn(C)c12` [QHL12], at IRAP [1], the IC50 amounted to 1.91 µM and the LipE is 1.68. Further, the IC50 at IRAP [2] is 1.95 µM. In addition, at IRAP [3], the ΔTm at 30 µM is -0.15 °C. In test [4], the “Enzyme Active” value is given as 3, the Targets active is listed as 3, the “Enzyme Active %” value is given as 3.6% and the “Targets Active %” value is on record as 2.1%. For the same molecule, the IC50 on IRAP [5] is 13.8 µM.

For `COc1ccc([C@@H]2c3nnnn3CCN2CCCN(C)c2ccccc2)c(C)c1` [QHL13], on IRAP [1], the IC50 was found to be 2.14 µM and the LipE is given as 2.39. In addition, the IC50 on IRAP [2] was 2 µM. For the same molecule, the ΔTm at 30 µM on IRAP [3] was -1.91 °C. Moreover, in test [4], the “Enzyme Active” value is reported as 12, the Targets active was 19, the “Enzyme Active %” value was 14.1% and the “Targets Active %” value is reported as 13.2%. The IC50 at IRAP [5] is 16.2 µM.

On to `O=C(COCc1ccccc1)N1CCc2n[nH]c(-c3cccs3)c2CC1` [QHL14], for which, on IRAP [1], the IC50 was 2.24 µM and the LipE is listed as 2.42. The IC50 at IRAP [2] was 2.34 µM. Besides, on IRAP [3], the thermal shift (ΔTm) at 30 µM is 0.15 °C. For the same molecule, in test [4], the “Enzyme Active” value is given as 3, the Targets active is given as 5, the “Enzyme Active %” value is recorded as 7.3% and the “Targets Active %” value is reported as 6.6%. Moreover, at IRAP [5], the IC50 was more than 20 µM.
